Tested on: streptozotocin (STZ)-induced diabetic rats
Test: Mechanical thresholds in streptozotocin (STZ)-induced diabetic rats
Assay type: in vivo, rat
Method: Experiments were conducted to determine the effect of Compound 1 in streptozotocin (STZ)-induced diabetic rats. In the first experiment, after obtaining mechanical threshold baselines, STZ (50 mg/kg IV) was administered (Day −7). Two days later, blood glucose levels were measured and animals that were hyperglycemic (>250 mg/dL) continued in the study. On Day 0 the baseline for mechanical thresholds prior to dosing with test articles was established for the rats. Compound 1 (10, 30, and 100 mg/kg PO), gabapentin (100 mg/kg PO) or vehicle was then administered daily for 5 days. On Day 0 mechanical thresholds were obtained at 1, 3, and 6 h post-dose. On Day 1 mechanical thresholds were measured immediately prior to dosing and then 3 h post-dose. The same regimen was followed on Day 3.
In a subsequent study, the same STZ paradigm was followed. However, in addition to the 100 mg/kg Compound 1 group, two additional cohorts received the Compound 1 100 mg/kg dose split into two or three doses per day with 50 mg/kg BID and 33 mg/kg TID. In addition to the gabapentin (100 mg/kg PO) group, a separate cohort received duloxetine (30 mg/kg PO). Additionally, in this study mechanical threshold testing was implemented every day immediately prior to dosing and 2 h post-dose for 7 days.

[1] = subsequent study, 7 days, Compound 1 100 mg/kg QD, 50 mg/kg BID, 33 mg/kg TID, gabapentin 100 mg/kg PO, duloxetine 30 mg/kg PO

| Structure (SMILES) | reversal of allodynia (mechanical threshold) (first experiment, Compound 1 10, 30, 100 mg/kg PO, gabapentin 100 mg/kg PO daily, Day 0 (gabapentin: 1 h post-dose on Day 0 and all time points thereafter)) | reversal of allodynia (mechanical threshold) [1] |
| --- | --- | --- |
| NCC1(CC(=O)O)CCCCC1 [gabapentin, reference compound] | significant reversal of allodynia | robustly reversed the allodynia throughout the study |
| CNCC[C@H](Oc1cccc2ccccc12)c1cccs1 [duloxetine, reference compound] |  | required successive doses for appreciable activity |

Source: US20200246317A1, “METHODS OF TREATING DIABETIC NEUROPATHY WITH A THIAZOLINE ANTI-HYPERALGESIC AGENT” (CERSCI THERAPEUTICS, INC., priority 2019, published 2020)
